Measurements published in patent US12201610B2, “Compositions comprising aticaprant” (Janssen Pharmaceuticals, Inc., priority 2022, dated 2025).

Key:
subjects with MDD [1] = experiment: MADRS total score, adjunctive aticaprant vs placebo in MDD (Example 6); conditions: for MADRS LSMeans difference estimate, supplementary analysis of data collected prior to 15 Mar. 2020 (COVID-19): MMRM
subjects with MDD [2] = experiment: ASEX sexual functioning score (Example 6); assay type: in vivo, human
Text: As used herein, the term “decrease in sexual functioning” refers to reducing or lessening of one or more components of the human sex drive, i.e., sexual functioning. In some embodiments, the sexual functioning comprises one or more of sexual drive, sexual arousal, vaginal lubrication, erection, orgasm achievement, or orgasm satisfaction. In other embodiments, the sexual functioning comprises sexual drive. In further embodiments, the sexual functioning comprises vaginal lubrication satisfaction. In further embodiments, the sexual functioning comprises orgasm achievement. In yet other embodiments, the sexual functioning comprises orgasm satisfaction. Desirably, the patient's sexual functioning is assessed at the time of initial administration of aticaprant. Thus, the patient's sexual functioning while taking aticaprant can be compared to the patient's sexual functioning before administration of aticaprant. Sexual functioning may be assessed by using standard scales and techniques such as the Arizona Sexual Experience Scale (ASEX). The ASEX is used to investigate whether aticaprant has a further positive or negative effect on sexual function. The ASEX is 5 item rating scale administered to patients that quantifies sexual drive, sexual arousal, vaginal lubrication or penile erection, ability to reach orgasm and satisfaction. Scores range from 5 to 30, and two different versions of the scale are available (males and females).
Patients had their sexual functioning measured using a standard, well accepted rating scale: ASEX. See, Table 48.

[3] = fITT Analysis Set, High anhedonia, Treatment Week 1
[4] = fITT Analysis Set, High anhedonia, Treatment Week 3
[5] = fITT Analysis Set, High anhedonia, Treatment Week 4
[6] = fITT Analysis Set, High anhedonia, Treatment Week 5
[7] = fITT Analysis Set, High anhedonia, Treatment Week 6
[8] = fITT Analysis Set, Low anhedonia, Treatment Week 1
[9] = fITT Analysis Set, Low anhedonia, Treatment Week 3
[10] = fITT Analysis Set, Low anhedonia, Treatment Week 4
[11] = fITT Analysis Set, Low anhedonia, Treatment Week 5
[12] = fITT Analysis Set, Low anhedonia, Treatment Week 6
[13] = fITT, Treatment Week 1, 10 mg adjunctive to SSRI/SNRI
[14] = fITT, Treatment Week 3, 10 mg adjunctive to SSRI/SNRI
[15] = fITT, Treatment Week 4, 10 mg adjunctive to SSRI/SNRI
[16] = fITT, Treatment Week 5, 10 mg adjunctive to SSRI/SNRI
[17] = fITT, Treatment Week 6, 10 mg adjunctive to SSRI/SNRI
[18] = fITT, Treatment Week 6, high anhedonia level
[19] = fITT, Treatment Week 6, low anhedonia level

Compound: Cc1cc(C)cc(C2CCCN2Cc2ccc(Oc3ccc(C(N)=O)cc3F)cc2)c1 (stereo not drawn) [aticaprant, 3-fluoro-4-4-2-(3,5-dimethylphenyl)pyrrolidin-1-yl-methylphenoxybenzamide]
- MADRS total score observed effect size (subjects with MDD [1]; eITT, Treatment Week 6, low anhedonia level (20≤ SHAPS <38)): 0.11
- MADRS total score change, difference between aticaprant and placebo (subjects with MDD [1]; eITT, Treatment Week 6, low anhedonia level (20≤ baseline SHAPS total score <38)): −0.9
- MADRS Total Score Effect size (subjects with MDD [1]; eITT, Treatment Week 6, vs placebo, negative favors aticaprant): 0.23
- MADRS Total Score Effect size (subjects with MDD [1]; eITT, Treatment Week 6, vs placebo, negative favors aticaprant, listed as Aticaprant): −0.23
- MADRS LSMeans difference estimate, supplementary analysis of data collected prior to 15 Mar. 2020 (COVID-19) (subjects with MDD [1]; eITT, vs placebo): −3.0
- MADRS Total Score Effect size (subjects with MDD [1]; [3]): −0.45
- MADRS Total Score Mean Change from Baseline (SD) (subjects with MDD [1]; [3]): −4.4 (5.04)
- MADRS Total Score Mean Change to Placebo (SD pooled) (subjects with MDD [1]; [3]): −2.0 (4.38)
- MADRS Total Score Effect size (subjects with MDD [1]; [4]): −0.54
- MADRS Total Score Mean Change from Baseline (SD) (subjects with MDD [1]; [4]): −6.9 (6.66)
- MADRS Total Score Mean Change to Placebo (SD pooled) (subjects with MDD [1]; [4]): −3.8 (6.94)
- MADRS Total Score Effect size (subjects with MDD [1]; [5]): −0.50
- MADRS Total Score Mean Change from Baseline (SD) (subjects with MDD [1]; [5]): −8.6 (7.32)
- MADRS Total Score Mean Change to Placebo (SD pooled) (subjects with MDD [1]; [5]): −3.8 (7.56)
- MADRS Total Score Effect size (subjects with MDD [1]; [6]): −0.51
- MADRS Total Score Mean Change from Baseline (SD) (subjects with MDD [1]; [6]): −10.2 (8.04)
- MADRS Total Score Mean Change to Placebo (SD pooled) (subjects with MDD [1]; [6]): −4.0 (7.87)
- MADRS Total Score Effect size (subjects with MDD [1]; [7]): −0.51
- MADRS Total Score Mean Change from Baseline (SD) (subjects with MDD [1]; [7]): −11.3 (8.69)
- MADRS Total Score Mean Change to Placebo (SD pooled) (subjects with MDD [1]; [7]): −4.6 (9.03)
- MADRS Total Score Effect size (subjects with MDD [1]; [8]): −0.24
- MADRS Total Score Mean Change from Baseline (SD) (subjects with MDD [1]; [8]): −2.4 (4.59)
- MADRS Total Score Mean Change to Placebo (SD pooled) (subjects with MDD [1]; [8]): −1.0 (4.39)
- MADRS Total Score Effect size (subjects with MDD [1]; [9]): −0.08
- MADRS Total Score Mean Change from Baseline (SD) (subjects with MDD [1]; [9]): −4.1 (6.67)
- MADRS Total Score Mean Change to Placebo (SD pooled) (subjects with MDD [1]; [9]): −0.5 (6.37)
- MADRS Total Score Effect size (subjects with MDD [1]; [10]): −0.23
- MADRS Total Score Mean Change from Baseline (SD) (subjects with MDD [1]; [10]): −6.4 (6.77)
- MADRS Total Score Mean Change to Placebo (SD pooled) (subjects with MDD [1]; [10]): −1.5 (6.65)
- MADRS Total Score Effect size (subjects with MDD [1]; [11]): −0.10
- MADRS Total Score Mean Change from Baseline (SD) (subjects with MDD [1]; [11]): −7.3 (6.90)
- MADRS Total Score Mean Change to Placebo (SD pooled) (subjects with MDD [1]; [11]): −0.7 (6.86)
- MADRS Total Score Effect size (subjects with MDD [1]; [12]): −0.29
- MADRS Total Score Mean Change from Baseline (SD) (subjects with MDD [1]; [12]): −8.8 (7.48)
- MADRS Total Score Mean Change to Placebo (SD pooled) (subjects with MDD [1]; [12]): −2.3 (7.80)
- MADRS Total Score Change from Baseline Mean (SD) (subjects with MDD [1]; [13]): −3.1
- MADRS Total Score Mean (SD) (subjects with MDD [1]; [13]): 21.7
- MADRS Total Score Mean Change to Placebo (SD pooled) (subjects with MDD [1]; [13]): −1.3 (4.43)
- MADRS Total Score Effect size (subjects with MDD [1]; fITT, Treatment Week 1, vs placebo, negative favors aticaprant): −0.29
- MADRS Total Score Change from Baseline Mean (SD) (subjects with MDD [1]; [14]): −5.1
- MADRS Total Score Mean (SD) (subjects with MDD [1]; [14]): 20.0
- MADRS Total Score Mean Change to Placebo (SD pooled) (subjects with MDD [1]; [14]): −1.7 (6.62)
- MADRS Total Score Effect size (subjects with MDD [1]; fITT, Treatment Week 3, vs placebo, negative favors aticaprant): −0.26
- MADRS Total Score Change from Baseline Mean (SD) (subjects with MDD [1]; [15]): −7.2
- MADRS Total Score Mean (SD) (subjects with MDD [1]; [15]): 17.9
- MADRS Total Score Mean Change to Placebo (SD pooled) (subjects with MDD [1]; [15]): −2.3 (7.02)
- MADRS Total Score Effect size (subjects with MDD [1]; fITT, Treatment Week 4, vs placebo, negative favors aticaprant): −0.32
- MADRS Total Score Change from Baseline Mean (SD) (subjects with MDD [1]; [16]): −8.3
- MADRS Total Score Mean (SD) (subjects with MDD [1]; [16]): 16.7
- MADRS Total Score Mean Change to Placebo (SD pooled) (subjects with MDD [1]; [16]): −1.9 (7.31)
- MADRS Total Score Effect size (subjects with MDD [1]; fITT, Treatment Week 5, vs placebo, negative favors aticaprant): −0.26
- percentage of subjects with MADRS remission (MADRS total score ≤10) (subjects with MDD [1]; fITT, Treatment Week 6): 31.2%
- percentage of subjects with ≥30% improvement in MADRS total score (subjects with MDD [1]; fITT, Treatment Week 6): 61.8%
- percentage of subjects with ≥50% improvement in MADRS total score (subjects with MDD [1]; fITT, Treatment Week 6): 38.2%
- MADRS Total Score Mean (SD) (subjects with MDD [1]; [17]): 15.9
- MADRS Total Score Mean Change to Placebo (SD pooled) (subjects with MDD [1]; [17]): −3.0 (8.31)
- MADRS total score change, difference between aticaprant and placebo (subjects with MDD [1]; [18]): −4.6
- MADRS total score observed effect size (subjects with MDD [1]; [18]): 0.51
- MADRS total score change, difference between aticaprant and placebo (subjects with MDD [1]; [19]): −2.3
- MADRS total score observed effect size (subjects with MDD [1]; [19]): 0.29
- MADRS Total Score Effect size (subjects with MDD [1]; fITT, Treatment Week 6, vs placebo, negative favors aticaprant): 0.36
- MADRS Total Score Effect size (subjects with MDD [1]; fITT, Treatment Week 6, vs placebo, negative favors aticaprant, listed as Aticaprant): −0.36
- onset of significant treatment effect favoring aticaprant (MADRS least squares mean change, FIG. 10-B) (subjects with MDD [1]; fITT, vs placebo): 3 week
- MADRS LSMeans difference estimate, supplementary analysis of data collected prior to 15 Mar. 2020 (COVID-19) (subjects with MDD [1]; fITT, vs placebo): −3.4
- ASEX score (subjects with MDD [2]; Baseline, n = 85): 21.26
- ASEX score (subjects with MDD [2]; Endpoint, n = 85): 19.79
- ASEX score Relative % Change (subjects with MDD [2]; n = 85): −6.91%
- ASEX score Absolute Change (subjects with MDD [2]; n = 85, lower score indicates improvement): −1.47
- ASEX total score mean change from treatment baseline (SD) (subjects with MDD [2]; to week 6, lower score indicates improvement): −1.5 (4.02) points
